# Reference: ChEMBL document CHEMBL1139816, “Melanocortin subtype 4 receptor agonists: structure-activity relationships about the 4-alkyl piperidine core” (Bioorg Med Chem Lett, 2007)
# Key:
# Melanocortin receptor 4 [1] = target: T1, Melanocortin receptor 4 (Homo sapiens, UniProt P32245); assay: […] at human MC4R assessed as stimulation of cAMP production; assay type: functional; design: concentration or dose not given beside the values
# Melanocortin receptor 5 = Melanocortin receptor 5 (Homo sapiens, UniProt P33032); assay: […] at human MC5R assessed as stimulation of cAMP production; assay type: functional; design: concentration or dose not given beside the values
# Chain of Melanocortin receptor 5 (P33032 whole entry): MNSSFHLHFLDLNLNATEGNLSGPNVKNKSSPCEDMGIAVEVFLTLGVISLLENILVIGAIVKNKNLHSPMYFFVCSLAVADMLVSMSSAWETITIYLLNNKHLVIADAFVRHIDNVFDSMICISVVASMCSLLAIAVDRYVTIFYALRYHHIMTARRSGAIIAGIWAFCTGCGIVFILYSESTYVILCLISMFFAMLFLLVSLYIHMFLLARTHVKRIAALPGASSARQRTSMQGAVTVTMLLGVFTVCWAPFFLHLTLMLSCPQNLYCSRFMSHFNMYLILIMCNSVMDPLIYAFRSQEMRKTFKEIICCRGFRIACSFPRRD
# Melanocortin receptor 4 [2] = target: T1, Melanocortin receptor 4; assay: Binding affinity to human MC4R
# Melanocortin receptor 3 = Melanocortin receptor 3 (Homo sapiens, UniProt P41968); assay: […] at human MC3R assessed as stimulation of cAMP production; assay type: functional; design: concentration or dose not given beside the values
# Chain of Melanocortin receptor 3 (P41968 whole entry): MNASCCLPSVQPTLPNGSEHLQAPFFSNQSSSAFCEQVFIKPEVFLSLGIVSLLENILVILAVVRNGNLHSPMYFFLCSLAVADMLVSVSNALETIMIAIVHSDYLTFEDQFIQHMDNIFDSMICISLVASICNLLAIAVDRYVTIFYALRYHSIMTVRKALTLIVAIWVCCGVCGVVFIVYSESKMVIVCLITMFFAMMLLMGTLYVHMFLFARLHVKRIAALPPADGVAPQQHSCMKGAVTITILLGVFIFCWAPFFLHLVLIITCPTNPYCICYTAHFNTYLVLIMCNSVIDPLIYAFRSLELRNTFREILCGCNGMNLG
# Homo sapiens [3] = organism: Homo sapiens; assay: Ratio of EC50 for human MC5R to EC50 for human MC4R
# Homo sapiens [4] = organism: Homo sapiens; assay: Ratio of EC50 for human MC3R to EC50 for human MC4R
# T1 sequence (P32245 whole entry): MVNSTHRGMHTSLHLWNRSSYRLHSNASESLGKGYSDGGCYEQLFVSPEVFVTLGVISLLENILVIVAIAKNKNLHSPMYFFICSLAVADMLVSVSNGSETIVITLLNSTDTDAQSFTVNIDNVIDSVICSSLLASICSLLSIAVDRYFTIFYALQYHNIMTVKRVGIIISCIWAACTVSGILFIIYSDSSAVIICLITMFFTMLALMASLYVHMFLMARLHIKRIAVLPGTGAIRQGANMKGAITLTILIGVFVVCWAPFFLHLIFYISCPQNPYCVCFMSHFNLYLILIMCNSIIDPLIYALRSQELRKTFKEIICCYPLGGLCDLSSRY
Activity (Melanocortin receptor 4 [1]),EC50 (Melanocortin receptor 4 [1]),Activity (Melanocortin receptor 5),EC50 (Melanocortin receptor 5),IC50 (Melanocortin receptor 4 [2]),Activity (Melanocortin receptor 3),EC50 (Melanocortin receptor 3),Selectivity ratio (Homo sapiens [3]),Selectivity ratio (Homo sapiens [4]),SMILES
90%,157 nM,18%,2950 nM,32 nM,18%,2950 nM,,,Cn1nnnc1CC1(C2CCOCC2)CCN(C(=O)[C@H](Cc2ccc(Cl)cc2)NC(=O)[C@H]2Cc3ccccc3CN2)CC1
76%,21 nM,27%,380 nM,3.6 nM,,,,,Cn1nnnc1CC1(CC(C)(C)C)CCN(C(=O)[C@H](Cc2ccc(Cl)cc2)NC(=O)[C@H]2Cc3ccccc3CN2)CC1
52%,196 nM,40%,630 nM,16.4 nM,,,,,N#CCC1(C2CCCC2)CCN(C(=O)[C@H](Cc2ccc(Cl)cc2)NC(=O)[C@H]2Cc3ccccc3CN2)CC1
100%,4.9 nM,17%,527 nM,113 nM,92%,434 nM,,,Cn1nnnc1CC1(c2ccc(Cl)cc2)CCN(C(=O)[C@H](Cc2ccc(Cl)cc2)NC(=O)[C@H]2Cc3ccccc3CN2)CC1
32%,827 nM,20%,1100 nM,63 nM,,,,,CC(C)C1(CC#N)CCN(C(=O)[C@H](Cc2ccc(Cl)cc2)NC(=O)[C@H]2Cc3ccccc3CN2)CC1
,,,,1490 nM,,,,,CC1(CC#N)CCN(C(=O)[C@H](Cc2ccc(Cl)cc2)NC(=O)[C@H]2Cc3ccccc3CN2)CC1
70%,111 nM,20%,1760 nM,52.3 nM,17%,840 nM,,,Cn1nnnc1CC1(Cc2ccccc2)CCN(C(=O)[C@H](Cc2ccc(Cl)cc2)NC(=O)[C@H]2Cc3ccccc3CN2)CC1
107%,3.9 nM,39%,250 nM,3.7 nM,33%,263 nM,,,CCC(C)C1(Cc2nnnn2C)CCN(C(=O)[C@H](Cc2ccc(Cl)cc2)NC(=O)[C@H]2Cc3ccccc3CN2)CC1 (some centres undefined)
55%,563 nM,,,177 nM,,,,,CN1CCN[C@@H](C(=O)N[C@@H](Cc2ccc(F)cc2)C(=O)N2CCC(CC3CCC3)(C(=O)NC(C)(C)C)CC2)C1
96%,3.2 nM,57%,222 nM,0.85 nM,50%,115 nM,69,36,Cn1nnnc1CC1(C2CCCCC2)CCN(C(=O)[C@H](Cc2ccc(Cl)cc2)NC(=O)[C@H]2Cc3ccccc3CN2)CC1
55%,151 nM,,,66.2 nM,,,,,CCC(C)(C)C1(C(=O)NC(C)(C)C)CCN(C(=O)[C@H](Cc2ccc(F)cc2)NC(=O)[C@H]2CN(C)CCN2)CC1
,,,,759 nM,,,,,CCC1(CC#N)CCN(C(=O)[C@H](Cc2ccc(Cl)cc2)NC(=O)[C@H]2Cc3ccccc3CN2)CC1
79%,57.8 nM,56%,1980 nM,36.6 nM,,,,,CN1CCN[C@@H](C(=O)N[C@@H](Cc2ccc(F)cc2)C(=O)N2CCC(C(=O)NC(C)(C)C)(C3(C)CCCCC3)CC2)C1
84%,28.7 nM,15%,684 nM,4 nM,34%,1000 nM,,,CCCCCCC1(Cc2nnnn2C)CCN(C(=O)[C@H](Cc2ccc(Cl)cc2)NC(=O)[C@H]2Cc3ccccc3CN2)CC1
59%,1770 nM,,,343 nM,,,,,CN1CCN[C@@H](C(=O)N[C@@H](Cc2ccc(F)cc2)C(=O)N2CCC(C(=O)NC(C)(C)C)(C3C=CC(=O)CC3)CC2)C1 (some centres undefined)
,,,,173 nM,,,,,N#CCC1(C2CC2)CCN(C(=O)[C@H](Cc2ccc(Cl)cc2)NC(=O)[C@H]2Cc3ccccc3CN2)CC1
76%,84.6 nM,,,64 nM,,,,,CN1CCN[C@@H](C(=O)N[C@@H](Cc2ccc(F)cc2)C(=O)N2CCC(C(=O)NC(C)(C)C)(C3C=CCCC3)CC2)C1 (some centres undefined)
98%,6.5 nM,31%,977 nM,13.6 nM,,,,,CN1CCN[C@@H](C(=O)N[C@@H](Cc2ccc(F)cc2)C(=O)N2CCC(C(=O)NC(C)(C)C)(C3CCCCC3)CC2)C1
87%,546 nM,19%,1120 nM,162 nM,42%,241 nM,,,CN1CCN[C@@H](C(=O)N[C@@H](Cc2ccc(F)cc2)C(=O)N2CCC(C(=O)NC(C)(C)C)(C3CCC(C)(C)CC3)CC2)C1
51%,189 nM,42%,640 nM,6.8 nM,,,3,,N#CCC1(C2CCCCC2)CCN(C(=O)[C@H](Cc2ccc(Cl)cc2)NC(=O)[C@H]2Cc3ccccc3CN2)CC1
40%,281 nM,21%,480 nM,22.2 nM,,,,,CCCCC1(CC#N)CCN(C(=O)[C@H](Cc2ccc(Cl)cc2)NC(=O)[C@H]2Cc3ccccc3CN2)CC1
81%,10 nM,27%,888 nM,6.8 nM,37%,230 nM,,,CC1CCC(C2(C(=O)NC(C)(C)C)CCN(C(=O)[C@H](Cc3ccc(F)cc3)NC(=O)[C@H]3CN(C)CCN3)CC2)CC1 (some centres undefined)
98%,12.5 nM,46%,662 nM,6 nM,31%,680 nM,,,CC(C)CC1(Cc2nnnn2C)CCN(C(=O)[C@H](Cc2ccc(Cl)cc2)NC(=O)[C@H]2Cc3ccccc3CN2)CC1
54%,2170 nM,,,840 nM,,,,,CN1CCN[C@@H](C(=O)N[C@@H](Cc2ccc(F)cc2)C(=O)N2CCC(CC3CC3)(C(=O)NC(C)(C)C)CC2)C1
